Assay results published in the NIST ThermoML archive (doi:10.1016/j.fluid.2015.07.030).
± gives the expanded uncertainty stated by the source.

Tests used:
[1] = xn = mol fraction of the nth substance listed; conditions: 293.15 K; 95.99 kPa; Liquid; Vibrating tube method; x1 = 1
[2] = refractive index (other wavelength) (dimensionless); xn = mol fraction of the nth substance listed; conditions: 95.99 kPa, Liquid, Standard Abbe refractometry, x1 = 1
[3] = Liquid; for mass density: 95.99 kPa, Vibrating tube method; for vapor or sublimation pressure: Ebulliometric method (Recirculating still)
[4] = refractive index (other wavelength) (dimensionless); conditions: 95.99 kPa, Liquid, Wavelength=404.7 nm, Standard Abbe refractometry

O [water] + OCCOCCOCCO
Conditions	mass density [kg/m3]
[1]	998.27 ± 0.2

refractive index, [2]
Conditions	Wavelength=404.7 nm	Wavelength=435.8 nm	Wavelength=486.1 nm	Wavelength=546.1 nm	Wavelength=587.6 nm	Wavelength=589.3 nm	Wavelength=632.8 nm	Wavelength=644 nm	Wavelength=706.5 nm
293.15 K	1.34287 ± 0.00031	1.34033 ± 0.00031	1.33728 ± 0.00031	–	1.33325 ± 0.00031	1.332 ± 0.00031	1.33194 ± 0.00031	1.33164 ± 0.00031	1.33018 ± 0.00031
298.15 K	1.34223 ± 0.00031	1.33969 ± 0.00031	1.33606 ± 0.00031	1.33405 ± 0.00033	1.33262 ± 0.00031	1.33257 ± 0.00031	1.33132 ± 0.00031	1.33103 ± 0.00031	1.32956 ± 0.00031
303.15 K	1.3416 ± 0.00031	1.33908 ± 0.00031	1.33606 ± 0.00031	1.33344 ± 0.00031	1.33203 ± 0.00031	1.33198 ± 0.00031	1.33074 ± 0.00031	1.33045 ± 0.00031	1.32898 ± 0.00031
308.15 K	1.34092 ± 0.00031	1.33843 ± 0.00031	1.33538 ± 0.00031	1.33278 ± 0.00031	1.33136 ± 0.00031	1.33131 ± 0.00031	1.33007 ± 0.00031	1.32979 ± 0.00031	1.32834 ± 0.00031
313.15 K	1.3402 ± 0.00031	1.3377 ± 0.00031	1.33466 ± 0.00031	1.33207 ± 0.00031	1.33066 ± 0.00031	1.33061 ± 0.00031	1.32937 ± 0.00031	1.32908 ± 0.00031	1.32764 ± 0.00031

OCCOCCOCCO [triethylene glycol]
Conditions	mass density, [3] [kg/m3]	refractive index, [4]	vapor or sublimation pressure, [3] [kPa]
293.15 K	1123.12 ± 0.25	1.45619 ± 0.00033 [middle of 9 runs]	–
298.15 K	1119.01 ± 0.25	1.45447 ± 0.00033 [middle of 9 runs]	–
303.15 K	1114.79 ± 0.25	1.45273 ± 0.00033 [middle of 9 runs]	–
308.15 K	1110.81 ± 0.25	1.45106 ± 0.00033 [middle of 9 runs]	–
313.15 K	1106.7 ± 0.25	1.44927 ± 0.00033 [middle of 9 runs]	–
535.65 K	–	–	53.33 ± 0.48
543.87 K	–	–	66.66 ± 0.67
551.33 K	–	–	79.99 ± 0.8
559.01 K	–	–	95.99 ± 1

O [water]
Conditions	refractive index, 293.15 K	refractive index, 298.15 K	refractive index, 303.15 K	refractive index, 308.15 K	refractive index, 313.15 K	vapor or sublimation pressure, 356.16 K [kPa]	vapor or sublimation pressure, 361.89 K [kPa]	vapor or sublimation pressure, 366.73 K [kPa]	vapor or sublimation pressure, 371.71 K [kPa]
[3]	–	–	–	–	–	53.33 ± 0.37	66.66 ± 0.5	79.99 ± 0.6	95.99 ± 0.77
[4]	1.33325 ± 0.00031 [middle of 9 runs]	1.33262 ± 0.00031 [middle of 9 runs]	1.33203 ± 0.00031 [middle of 9 runs]	1.33136 ± 0.00031 [middle of 9 runs]	1.33066 ± 0.00031 [middle of 9 runs]	–	–	–	–
